# In publication PMC7007424 (Neurotherapeutics, 2019):
# Entries after “also recorded” stand apart in the source; their conditions may differ. Where two headings read alike, the source gives them in different places. Marks after values point to notes of the source that are not given here.
# Assays:
# [1] = system: hepatoma HepG2 cells; conditions: 24 h incubation, only at the highest used dose of 100 μM; ref [12]; cited from earlier work
# [2] = target: hERG potassium channel (Homo sapiens, UniProt Q12809); test: in vitro
# [3] = system: L-type Ca^2+ (verapamil site, antagonist radioligand); parameters: method as in Rapacz et al. [12]; conditions: rat cerebral cortex, ref Rapacz et al. [12], cited from earlier work
# [4] = system: PTZ-induced kindling in mice; test: PTZ-induced kindling; type: in vivo; conditions: 33 daily i.p. injections; AS-1 15, 30 and 60 mg/kg, VPA 150 mg/kg; PTZ 40 mg/kg i.p. every 48 h, 17 injections; vs PTZ-kindled control
# Description: All suspensions and solutions were prepared freshly and administered in a constant volume of 0.1 ml per 10 g of body weight. In all experiments, AS-1 and VPA were injected i.p. Control animals received vehicles only. […] After each PTZ injection, mice were placed separately into transparent cages for 30 min for behavioral observation to assign an appropriate seizure score. […] After each PTZ injection, the mean seizure severity score for each experimental group was calculated. Non-kindled (control) mice were treated as kindled animals, except that they were injected with normal saline instead of PTZ. Experimental grouping for PTZ kindling was as follows: […]
# [5] = system: PTZ-kindled mice; test: elevated plus maze test in PTZ-kindled mice; type: in vivo; conditions: repeated i.p. injection, AS-1 15–60 mg/kg, VPA 150 mg/kg
# Description: (§1) Twenty-four hours after the last PTZ injection (on day 34), mice were subjected to the locomotor activity test, the elevated plus maze test, and the forced swim test. Forty-eight hours after the last PTZ injection (on day 35) the i.v. PTZ seizure threshold test was performed. The elevated plus maze test was used to assess the anxiety-like behavior in kindled animal, as described in detail in our previous study.
# [6] = system: NMDA (antagonist radioligand); parameters: method as in Rapacz et al. [12]; conditions: rat cerebral cortex, ref Rapacz et al. [12], cited from earlier work
# [7] = target: T1, CB1 (h) (Homo sapiens, UniProt P21554); test: CB1 functional assay (agonist and antagonist effect); type: cell-based; conditions: human recombinant (CHO cells), read-out: % inhibition of control agonist/antagonist response (antagonist effect)
# T1 construct: Cerep Laboratories (contract testing)
# [8] = target: CYP2D6 (Homo sapiens, UniProt P10635)
# [9] = parallel artificial membrane permeability assay (PAMPA); type: in vitro ADME; conditions: ± SD, read-out: Pe, permeability coefficient
# [10] = system: N-type Ca^2+ (antagonist radioligand); parameters: method as in Rapacz et al. [12]; conditions: 100 μM; rat cerebral cortex; ref Rapacz et al. [12]; cited from earlier work
# [11] = target: CYP2C9 (Homo sapiens, UniProt P11712); conditions: 10 μM
# [12] = system: PTZ-kindled mice; test: locomotor activity test in PTZ-kindled mice; type: in vivo; conditions: repeated i.p. injection, AS-1 15–60 mg/kg, VPA 150 mg/kg, day 34
# Description: Twenty-four hours after the last PTZ injection (on day 34), mice were subjected to the locomotor activity test, the elevated plus maze test, and the forced swim test. Forty-eight hours after the last PTZ injection (on day 35) the i.v. PTZ seizure threshold test was performed. Spontaneous locomotor activity of mice was monitored using the […] system supported by SedaCom32 software (Panlab/Harvard Apparatus, Barcelona, Spain) according to the method described in detail elsewhere.
# [13] = target: T2, TRPV1 (VR1) (h) (Homo sapiens, UniProt Q8NER1); test: TRPV1 functional assay (antagonist effect); type: cell-based; conditions: human recombinant (CHO cells), read-out: % inhibition of control agonist/antagonist response (antagonist effect)
# T2 construct: Cerep Laboratories (contract testing)
# [14] = system: hepatoma HepG2 cells; test: hepatotoxicity, HepG2 cell viability; type: cell-based
# [15] = system: 6-Hz-induced seizures (44 mA); test: 6-Hz (44 mA) seizure model; type: in vivo; conditions: Mus musculus, ip; mice, i.p., 30 min before the test; 95% confidence intervals in parentheses
# [16] = system: Na^+ channel (site 2); parameters: method as in Rapacz et al. [12]; conditions: rat cerebral cortex, ref Rapacz et al. [12], cited from earlier work
# [17] = system: mice; test: grip strength test; type: in vivo; conditions: i.p. 30 min before, AS-1 81.12 mg/kg, VPA […], combination AS-1 27.6 + VPA 59.9 mg/kg
# From the text: The time before the commencement of the grip strength test (after drug administration) was identical to that of the PTZ test. This experimental procedure has been described in detail in our earlier studies.
# [18] = system: 6-Hz (32 mA) psychomotor seizures; conditions: mice, i.p., cited from earlier work; for ED50 (6 Hz, 32 mA): ref [10], [12]; for anticonvulsant activity in 6 Hz, 32 mA: known AED profile, Fig. 1
# [19] = system: GABA transporter (antagonist radioligand); test: GABA transporter binding; conditions: 100 μM; rat cerebral cortex
# [20] = system: PTZ-induced clonic seizures in mice; test: s.c. PTZ-induced clonic seizure test, with isobolographic analysis; type: in vivo
# Description: Following PTZ administration, mice were placed separately in transparent Plexiglas cages (25 cm × 15 cm × 10 cm) and observed for 30 min for the occurrence of clonic seizures. Clonic seizure activity was defined as the clonus of the whole body lasting for over 3 s, with an accompanying loss of righting reflex.
# To determine the ED50 mix value, both drugs in the mixture (at proportionally raised doses) were administered to the mice and a dose–response relationship for the mixture was denoted using Litchfield and Wilcoxon [25]’s log-probit method. • Statistical comparison of the experimentally derived ED50 mix values with their corresponding theoretically additive ED50 add values was undertaken using the unpaired Student’s t test, according to Tallarida [30]. • Graphical illustration of the examined interactions as isobolograms (i.e., simple forms of interaction visualizations).
# [21] = metabolic stability on human liver microsomes (HLMs); type: in vitro ADME; conditions: 120 min incubation with HLMs
# [22] = system: kindled mice; test: i.v. PTZ seizure threshold test in kindled mice; type: in vivo
# [23] = system: L-type Ca^2+ (diltiazem site, antagonist radioligand); test: L-type Ca2+ channel (diltiazem site) binding; conditions: 100 μM; rat cerebral cortex
# [24] = target: CYP3A4 (Homo sapiens, UniProt P08684)
# [25] = system: zebrafish larvae; test: EEG discharge assessment in zebrafish larvae exposed to PTZ; conditions: 5 mM, 20 h incubation, then 20 mM PTZ for 5 min; vs vehicle-incubated control
# [26] = system: fast voltage-gated sodium channels; test: patch clamp of sodium currents in prefrontal cortex pyramidal neurons; type: cell-based, rats; conditions: 100 μM, holding potential − 65 mV, n = 6, p > 0.05
# [27] = system: mice; test: chimney test; type: in vivo; conditions: i.p. 30 min before, AS-1 81.12 mg/kg, VPA […], combination AS-1 27.6 + VPA 59.9 mg/kg
# From the text: [31]’s chimney test. The pretreatment time for AS-1 and VPA in the chimney test was identical to that of the PTZ test. This experimental procedure has been described in detail in our earlier studies.
# [28] = system: mice; test: passive avoidance task; type: in vivo; conditions: i.p. 30 min before, AS-1 81.12 mg/kg, VPA […], combination AS-1 27.6 + VPA 59.9 mg/kg
# [29] = system: naïve mice; test: i.v. PTZ seizure threshold test in naïve mice; type: in vivo; conditions: acute
# Description: All suspensions and solutions were prepared freshly and administered in a constant volume of 0.1 ml per 10 g of body weight. […] The timed i.v. PTZ test was used to evaluate the changes in seizure threshold in both naïve and kindled mice. The experimental procedure has been described in detail in our earlier studies.
# [30] = system: PTZ-induced clonic seizures in mice; conditions: i.p., cited from earlier work
# [31] = system: PTZ-kindled mice; parameters: method as in PMID 30247871; conditions: former study, ref [13]; cited from earlier work
# [32] = system: maximal electroshock (MES) seizure; conditions: mice, i.p.; known AED profile, Fig. 1; cited from earlier work
# [33] = system: 6-Hz seizures; parameters: method as in PMID 28449218; conditions: 6-Hz test; ref [17]; cited from earlier work
# [34] = system: PTZ-kindled mice; test: forced swim test in PTZ-kindled mice; type: in vivo; conditions: repeated i.p. injection, AS-1 15–60 mg/kg, VPA 150 mg/kg, vs kindled control
# Description: as §1, with “The forced swim” for “The elevated plus maze”, “the depressive-like” for “the anxiety-like”, “kindled animals. The procedure was performed” for “kindled animal,”, “detail elsewhere.” for “detail in our previous study.”
# [35] = repeated i.p. pretreatment 15–60 mg/kg
# [36] = 15 mg/kg i.p., 30 min before the test
# [37] = 30 mg/kg and 60 mg/kg i.p. (p < 0.01 and p < 0.001)
# Chain of CYP2D6 (P10635 whole entry): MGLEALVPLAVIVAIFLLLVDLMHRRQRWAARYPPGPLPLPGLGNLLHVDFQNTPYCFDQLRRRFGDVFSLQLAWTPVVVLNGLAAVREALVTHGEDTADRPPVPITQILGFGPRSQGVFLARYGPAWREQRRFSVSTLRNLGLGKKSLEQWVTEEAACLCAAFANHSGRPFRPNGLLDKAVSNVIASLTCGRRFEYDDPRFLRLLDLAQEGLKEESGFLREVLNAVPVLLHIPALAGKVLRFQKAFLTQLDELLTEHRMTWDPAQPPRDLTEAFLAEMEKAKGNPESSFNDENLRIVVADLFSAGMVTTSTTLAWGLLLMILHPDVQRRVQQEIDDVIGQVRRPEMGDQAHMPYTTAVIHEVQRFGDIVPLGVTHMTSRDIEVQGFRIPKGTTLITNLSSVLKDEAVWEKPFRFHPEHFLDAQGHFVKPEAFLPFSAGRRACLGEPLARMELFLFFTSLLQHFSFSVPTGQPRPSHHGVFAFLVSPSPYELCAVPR
# Chain of CYP3A4 (P08684 whole entry): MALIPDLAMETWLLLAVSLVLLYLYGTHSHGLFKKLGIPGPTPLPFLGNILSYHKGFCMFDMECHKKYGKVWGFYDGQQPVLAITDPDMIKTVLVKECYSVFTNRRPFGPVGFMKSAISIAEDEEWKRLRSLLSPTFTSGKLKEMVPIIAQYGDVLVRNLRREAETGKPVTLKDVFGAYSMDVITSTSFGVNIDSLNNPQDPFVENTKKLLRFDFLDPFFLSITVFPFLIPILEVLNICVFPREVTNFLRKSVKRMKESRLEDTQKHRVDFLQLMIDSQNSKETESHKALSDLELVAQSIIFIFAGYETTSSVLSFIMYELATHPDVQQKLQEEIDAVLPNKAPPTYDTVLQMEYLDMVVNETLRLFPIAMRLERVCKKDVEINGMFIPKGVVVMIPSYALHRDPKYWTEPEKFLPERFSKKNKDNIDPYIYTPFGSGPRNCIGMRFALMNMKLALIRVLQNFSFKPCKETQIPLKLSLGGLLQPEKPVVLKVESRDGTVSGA
# T2 sequence (Q8NER1 whole entry): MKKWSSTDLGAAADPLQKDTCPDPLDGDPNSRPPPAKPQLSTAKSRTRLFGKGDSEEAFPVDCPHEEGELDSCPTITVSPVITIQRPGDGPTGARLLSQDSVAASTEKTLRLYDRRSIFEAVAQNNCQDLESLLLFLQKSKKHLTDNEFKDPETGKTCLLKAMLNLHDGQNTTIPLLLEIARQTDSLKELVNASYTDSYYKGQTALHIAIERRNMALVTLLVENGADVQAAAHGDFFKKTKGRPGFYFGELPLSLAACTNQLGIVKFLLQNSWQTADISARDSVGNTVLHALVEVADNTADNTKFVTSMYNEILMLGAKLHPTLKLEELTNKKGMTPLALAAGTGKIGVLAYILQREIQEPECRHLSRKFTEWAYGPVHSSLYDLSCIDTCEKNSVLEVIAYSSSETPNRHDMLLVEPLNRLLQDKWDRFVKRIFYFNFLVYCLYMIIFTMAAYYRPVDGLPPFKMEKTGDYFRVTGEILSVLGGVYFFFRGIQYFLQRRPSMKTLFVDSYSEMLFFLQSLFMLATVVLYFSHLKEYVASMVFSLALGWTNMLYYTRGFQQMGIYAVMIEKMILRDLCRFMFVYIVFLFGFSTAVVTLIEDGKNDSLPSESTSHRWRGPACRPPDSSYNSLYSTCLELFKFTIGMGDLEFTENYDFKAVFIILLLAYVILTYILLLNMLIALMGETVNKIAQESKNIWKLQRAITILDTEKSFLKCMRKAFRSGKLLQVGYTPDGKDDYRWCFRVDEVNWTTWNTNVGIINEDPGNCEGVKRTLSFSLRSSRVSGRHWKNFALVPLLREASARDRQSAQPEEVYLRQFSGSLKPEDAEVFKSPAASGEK
# Chain of hERG potassium channel (Q12809 whole entry): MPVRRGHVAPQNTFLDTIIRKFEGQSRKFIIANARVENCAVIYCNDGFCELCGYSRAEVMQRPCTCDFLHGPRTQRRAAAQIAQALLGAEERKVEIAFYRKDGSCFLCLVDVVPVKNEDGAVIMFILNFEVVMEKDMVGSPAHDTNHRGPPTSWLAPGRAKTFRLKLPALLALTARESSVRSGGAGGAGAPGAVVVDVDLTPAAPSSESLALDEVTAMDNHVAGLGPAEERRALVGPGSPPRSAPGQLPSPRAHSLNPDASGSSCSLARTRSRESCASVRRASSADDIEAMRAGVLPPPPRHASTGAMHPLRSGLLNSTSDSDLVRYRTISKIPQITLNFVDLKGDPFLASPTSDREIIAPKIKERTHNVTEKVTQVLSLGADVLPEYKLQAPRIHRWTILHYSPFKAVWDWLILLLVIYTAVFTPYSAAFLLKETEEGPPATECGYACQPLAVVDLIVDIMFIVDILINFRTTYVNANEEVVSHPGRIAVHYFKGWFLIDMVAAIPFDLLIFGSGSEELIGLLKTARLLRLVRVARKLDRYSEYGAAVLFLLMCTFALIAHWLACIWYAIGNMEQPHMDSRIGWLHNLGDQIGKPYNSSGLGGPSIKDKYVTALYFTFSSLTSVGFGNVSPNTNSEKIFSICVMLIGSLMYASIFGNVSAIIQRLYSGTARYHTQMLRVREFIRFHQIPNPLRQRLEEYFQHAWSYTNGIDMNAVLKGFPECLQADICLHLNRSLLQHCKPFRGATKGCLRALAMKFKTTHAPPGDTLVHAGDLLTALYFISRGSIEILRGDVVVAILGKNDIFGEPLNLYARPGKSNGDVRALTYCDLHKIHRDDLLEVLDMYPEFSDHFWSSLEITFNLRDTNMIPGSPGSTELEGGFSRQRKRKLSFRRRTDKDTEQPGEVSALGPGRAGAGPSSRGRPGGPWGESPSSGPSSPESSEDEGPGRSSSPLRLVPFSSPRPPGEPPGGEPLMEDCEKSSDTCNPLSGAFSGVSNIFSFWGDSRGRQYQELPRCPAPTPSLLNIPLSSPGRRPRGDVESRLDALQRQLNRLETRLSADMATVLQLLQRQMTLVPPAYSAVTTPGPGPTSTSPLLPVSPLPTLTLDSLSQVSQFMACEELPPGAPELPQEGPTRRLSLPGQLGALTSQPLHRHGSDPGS
# Chain of CYP2C9 (P11712 whole entry): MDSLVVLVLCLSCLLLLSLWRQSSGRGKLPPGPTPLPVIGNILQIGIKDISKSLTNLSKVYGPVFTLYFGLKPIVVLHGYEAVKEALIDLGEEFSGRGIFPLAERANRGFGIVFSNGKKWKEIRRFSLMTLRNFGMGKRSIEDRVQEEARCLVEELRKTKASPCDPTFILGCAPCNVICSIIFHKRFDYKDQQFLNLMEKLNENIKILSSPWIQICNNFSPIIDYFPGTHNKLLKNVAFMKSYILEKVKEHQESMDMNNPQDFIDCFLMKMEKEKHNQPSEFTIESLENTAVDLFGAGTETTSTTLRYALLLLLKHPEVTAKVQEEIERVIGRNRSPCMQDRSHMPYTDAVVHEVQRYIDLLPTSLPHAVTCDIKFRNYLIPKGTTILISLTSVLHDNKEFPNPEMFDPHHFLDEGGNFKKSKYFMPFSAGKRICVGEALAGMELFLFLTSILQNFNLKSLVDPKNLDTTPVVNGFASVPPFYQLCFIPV
# T1 sequence (P21554 whole entry): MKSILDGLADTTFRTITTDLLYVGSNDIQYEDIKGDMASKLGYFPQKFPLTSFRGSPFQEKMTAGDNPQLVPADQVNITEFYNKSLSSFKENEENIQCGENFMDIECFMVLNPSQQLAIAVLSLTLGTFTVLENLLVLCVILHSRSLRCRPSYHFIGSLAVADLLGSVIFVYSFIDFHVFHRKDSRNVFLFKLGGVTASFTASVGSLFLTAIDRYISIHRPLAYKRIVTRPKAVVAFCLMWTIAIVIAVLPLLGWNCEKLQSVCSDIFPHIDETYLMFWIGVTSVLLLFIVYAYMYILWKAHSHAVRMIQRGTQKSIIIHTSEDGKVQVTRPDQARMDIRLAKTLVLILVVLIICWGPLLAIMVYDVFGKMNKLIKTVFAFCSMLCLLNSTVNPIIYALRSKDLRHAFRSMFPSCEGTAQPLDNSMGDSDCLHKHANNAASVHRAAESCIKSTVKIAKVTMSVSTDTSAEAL
structure (smiles),measurement,setting,value
"CC(C(=O)NCc1ccccc1)N1C(=O)CCC1=O (stereo not drawn) [AS-1, N-benzyl-2-(2,5-dioxopyrrolidin-1-yl)propanamide]",effect on HepG2 cells,[1],"weak, statistically significant toxic effect"
same,inhibition at 100 µM,[2],0.8%
same,% inhibition of control-specific binding,[3]; 100 μM,15.0%
same,% inhibition of control-specific binding,[3]; 500 μM,45.0%
same,effect on kindling development (mean seizure severity score),[4],significantly suppressed kindling development
same,effect on percentage of open arm entries and percentage of time spent in open arms,[5],did not produce any significant changes
same,% inhibition of control-specific binding,[6]; 100 μM,15.0%
same,% inhibition of control-specific binding,[6]; 200 μM,35.0%
same,inhibition at 100 µM,[7],5.6%
same,effect on CYP2D6 activity,[8],No significant effect
same,CYP2D6 activity,"[8]; human, 10 μM",104.4 ± 0.5^a Percentage of control
same,Papp,[9],9.8 ± 2 ×10⁻⁶ cm/s
same,% inhibition of control-specific binding,[10],0.2 (100) %
same,CYP2C9 activity,[11],67.0 ± 3.6^a Percentage of control
same,effect on spontaneous locomotor activity,[12],did not affect locomotor activity
same,inhibition at 100 µM,[13],4.3%
same,HepG2 viability,"[14]; 100 μM, 72 h incubation, ± SD",82.3 ± 6.5^a Percentage of control
same,effect on HepG2 cells' viability,"[14]; only at the highest concentration used of 100 μM, 72 h, p < 0.05",slight but statistically significant effect
same,ED50,[15],75.4 mg/kg
same,% inhibition of control-specific binding,[16]; 100 μM,15.9%
same,% inhibition of control-specific binding,[16]; 500 μM,56.0%
same,"Muscular strength, mean grip strength ± SEM",[17],99.9 ± 2.2 g
same,"ED50 (6 Hz, 32 mA)",[18],24.66 mg/kg
same,% inhibition of control-specific binding,[19],2.4 (100) %
same,ED50,"[20]; Mus musculus, drug alone i.p. 30 min before s.c. PTZ 100 mg/kg, ± SEM, read-out: ED50 against PTZ-induced clonic seizures",81.1 ± 10.4 mg/kg
same,Phase I metabolism in human (metabolites by UPLC),[21],no presence of metabolites; also recorded: No metabolites found
same,effect on seizure threshold for the first myoclonic twitch,"[22]; repeated i.p. injection of 60 mg/kg, 48 h after last PTZ, vs non-kindled control",significantly increased the seizure threshold
same,effect on threshold for forelimb tonus,[22]; [35],No changes
same,effect on threshold for generalized clonus,[22]; [35],No changes
same,% inhibition of control-specific binding,[23],10.2 (100) %
same,effect on CYP3A4 activity,[24],No significant effect
same,effect on number of epileptiform discharges during 20 min,[25],significantly reduced
same,maximal amplitude of sodium currents normalized to control (1.0 in control),[26],0.93 ± 0.06
same,"Motor coordination, percentage of animals showing motor coordination impairment",[27],0%
same,"Retention time, median (25th; 75th percentiles)",[28],180 (146; 180) s
same,effect on threshold for generalized clonus,[29]; [36],did not affect significantly
same,effect on threshold for the first myoclonic twitch,[29]; [36],did not affect significantly
same,effect on threshold for generalized clonic seizure,[29]; [37],raised the thresholds
same,effect on threshold for the first myoclonic twitch,[29]; [37],raised the thresholds
same,effect on susceptibility to PTZ-induced forelimb extension (forelimb tonus threshold),[29]; 15–60 mg/kg i.p.,did not affect
"N#CC(C#N)=NNc1cccc(Cl)c1 [CCCP, carbonyl cyanide 3-chlorophenylhydrazone, reference compound]",HepG2 cells' viability,[14]; 10 μM,~ 40 % of control
"COc1cccc2c1C(=O)c1c(O)c3c(c(O)c1C2=O)C[C@@](O)(C(=O)CO)C[C@@H]3O[C@H]1C[C@H](N)[C@H](O)[C@H](C)O1 [DX, doxorubicin, reference compound]",HepG2 cells' viability,[14]; 1 μM,~ 40 % of control
"CCC1(C)CC(=O)NC1=O (stereo not drawn) [ETX, ethosuximide]",anticonvulsant activity in scPTZ,"[30]; known AED profile, Fig. 1",active
"CC(C(=O)N1CCN(c2cccc(C(F)(F)F)c2)CC1)N1C(=O)CCC1=O (stereo not drawn) [KA-11, 1-(1-oxo-1-(4-(3-(trifluoromethyl)phenyl)piperazin-1-yl)propan-2-yl)pyrrolidine-2,5-dione]",effect on depressive-like behavior caused by PTZ-induced kindling,[31],prevented the depressive-like behavior
"COC[C@@H](NC(C)=O)C(=O)NCc1ccccc1 [LCS, lacosamide, reference compound]","anticonvulsant activity in 6 Hz, 32 mA",[18],active
same,anticonvulsant activity in MES,[32],active
"CC[C@@H](C(N)=O)N1CCCC1=O [LEV, levetiracetam]","anticonvulsant activity in 6 Hz, 32 mA",[18],active
same,ED50 at 44 mA versus ED50 at 32 mA stimulus intensity,[33],at least 50 times
"CCCC(CCC)C(=O)O [VPA, valproic acid, reference compound]",effect on kindling development (mean seizure severity score),[4],suppressed kindling progression
same,effect on percentage of open arm entries and percentage of time spent in open arms,[5],did not produce any significant changes
same,ED50 (s.c. PTZ),"[30]; earlier study, ref [10], [12]",239.45 mg/kg
same,effect on spontaneous locomotor activity,[12],did not affect locomotor activity
same,"Muscular strength, mean grip strength ± SEM",[17],104.7 ± 2.8 g
same,"ED50 (6 Hz, 32 mA)",[18],130.65 mg/kg
same,protection against PTZ-induced clonic seizures,[20]; 125 mg/kg i.p.,12.5%
same,protection against PTZ-induced clonic seizures,[20]; 150 mg/kg i.p.,37.5%
same,protection against PTZ-induced clonic seizures,[20]; 200 mg/kg i.p.,62.5%
same,effect on total immobility duration,[34],significantly decreased the immobility time
same,"Motor coordination, percentage of animals showing motor coordination impairment",[27],12.5%
same,"Retention time, median (25th; 75th percentiles)",[28],180 (180; 180) s
